We go through 24 molecules from US20210387966A1, “2-AMINO-N-HETEROARYL-NICOTINAMIDES AS NAV1.8 INHIBITORS” (Merck Sharp & Dohme Corp., priority 2018, published 2021).

Usually IC50 stands for the point on the concentration scale where inhibition reaches its midpoint.

For the experiment, the target named is T1, human Nav1.8 channels (Homo sapiens, UniProt Q9Y5Y9).
T1 construct: expressed in transfected cells
T1 sequence (Q9Y5Y9 whole entry): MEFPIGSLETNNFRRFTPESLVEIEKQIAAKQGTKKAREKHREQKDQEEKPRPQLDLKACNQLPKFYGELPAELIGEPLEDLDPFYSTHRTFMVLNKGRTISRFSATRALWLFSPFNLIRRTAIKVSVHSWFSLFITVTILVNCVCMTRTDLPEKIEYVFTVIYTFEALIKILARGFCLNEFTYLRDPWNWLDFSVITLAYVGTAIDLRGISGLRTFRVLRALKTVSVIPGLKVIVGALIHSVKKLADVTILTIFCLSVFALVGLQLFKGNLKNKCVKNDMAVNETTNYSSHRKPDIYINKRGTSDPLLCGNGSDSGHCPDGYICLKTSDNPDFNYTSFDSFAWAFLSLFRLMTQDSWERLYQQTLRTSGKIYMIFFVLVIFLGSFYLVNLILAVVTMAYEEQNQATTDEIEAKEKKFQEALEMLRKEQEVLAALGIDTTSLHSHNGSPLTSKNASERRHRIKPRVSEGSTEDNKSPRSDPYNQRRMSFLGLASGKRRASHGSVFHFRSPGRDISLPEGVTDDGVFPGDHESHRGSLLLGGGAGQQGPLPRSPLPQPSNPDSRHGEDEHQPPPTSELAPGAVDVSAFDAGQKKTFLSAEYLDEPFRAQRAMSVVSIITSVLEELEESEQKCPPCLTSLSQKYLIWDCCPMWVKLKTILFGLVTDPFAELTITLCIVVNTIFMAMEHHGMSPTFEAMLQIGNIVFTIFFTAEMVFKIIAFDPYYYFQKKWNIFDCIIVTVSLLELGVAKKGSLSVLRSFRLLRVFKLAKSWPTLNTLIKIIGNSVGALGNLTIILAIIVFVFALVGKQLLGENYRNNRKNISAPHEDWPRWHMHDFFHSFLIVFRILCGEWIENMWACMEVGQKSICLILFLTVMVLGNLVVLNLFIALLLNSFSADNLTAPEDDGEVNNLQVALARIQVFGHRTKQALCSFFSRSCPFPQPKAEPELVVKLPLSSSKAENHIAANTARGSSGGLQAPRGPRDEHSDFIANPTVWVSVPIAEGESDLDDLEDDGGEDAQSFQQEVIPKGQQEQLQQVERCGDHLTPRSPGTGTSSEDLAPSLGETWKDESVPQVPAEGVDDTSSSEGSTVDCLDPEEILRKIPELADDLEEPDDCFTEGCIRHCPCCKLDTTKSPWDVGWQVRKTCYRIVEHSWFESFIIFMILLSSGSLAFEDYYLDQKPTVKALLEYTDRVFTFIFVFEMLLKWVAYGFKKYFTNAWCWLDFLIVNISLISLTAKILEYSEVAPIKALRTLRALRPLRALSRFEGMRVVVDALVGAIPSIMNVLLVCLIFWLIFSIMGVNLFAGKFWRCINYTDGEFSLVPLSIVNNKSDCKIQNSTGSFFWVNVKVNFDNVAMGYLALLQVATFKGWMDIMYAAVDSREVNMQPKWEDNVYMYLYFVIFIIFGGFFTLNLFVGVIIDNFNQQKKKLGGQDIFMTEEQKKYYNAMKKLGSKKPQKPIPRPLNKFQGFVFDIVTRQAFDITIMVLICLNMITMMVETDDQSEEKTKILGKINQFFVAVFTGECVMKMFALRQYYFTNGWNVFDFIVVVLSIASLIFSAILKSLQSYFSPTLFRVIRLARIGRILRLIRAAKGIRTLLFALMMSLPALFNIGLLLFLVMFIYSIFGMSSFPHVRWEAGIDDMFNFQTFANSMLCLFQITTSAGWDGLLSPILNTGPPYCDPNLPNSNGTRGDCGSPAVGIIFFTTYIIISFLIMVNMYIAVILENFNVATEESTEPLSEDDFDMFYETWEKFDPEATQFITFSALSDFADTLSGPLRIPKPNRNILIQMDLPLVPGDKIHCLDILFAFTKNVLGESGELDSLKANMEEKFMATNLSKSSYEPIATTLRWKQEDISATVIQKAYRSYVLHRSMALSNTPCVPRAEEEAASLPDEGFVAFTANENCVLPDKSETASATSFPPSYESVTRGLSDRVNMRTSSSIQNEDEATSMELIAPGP
Kind of experiment: Nav1.8 Qube automated patch-clamp assay. In kind it is cell-based. The following applies: human Nav1.8 stably expressed in HEK 293 cells; whole-cell voltage clamp, room temperature; resting or inactivated state not specified; read-out: IC50 values (nM) for Examples in the Nav1.8 Qube Assay. The protocol: Compounds were tested on human Nav1.8 and Nav1.5 channels stably expressed in human embryo kidney (HEK) 293 cells. Sodium current measurements on Qube® were conducted as follows: automated 384-well patch-clamp assays on the Qube® platform (Sophion Biosciences) were used to measure the inhibition of sodium flow through human Nav1.8 and Nav1.5 channels. Whole-cell voltage-clamp recordings were performed in QChips® (Sophion Biosciences) at room temperature. Nav1.8 current measurements on Qube® were obtained as follows: Nav1.8 currents were elicited with a 10 second 1 Hertz (Hz) pulse train from a holding potential of −90 millivolts (mV), delivered to the cells once per minute in the control condition (DMSO only) and after compound addition. The 1 hertz pulse train stimulation consisted of ten test pulses to 10 millivolt (mV) for 20 milliseconds (ms), each of which was followed by a 980 millisecond repolarization to −67 millivolts. At the end of the 10 second pulse train stimulation, a second hyperpolarization step to −100 millivolt (mV) was used to recover Nav1.8 from fast inactivation. The peak currents elicited by the 1st and 10th test pulses were used to determine IC50 values for resting inhibition and inactivated state inhibition. Nav1.5 current measurements on Qube® were obtained as follows: Nav1.5 currents were elicited with a 20 second 3 Hertz pulse train in the control condition (DMSO only) and after compound addition. The pulse train consisted of sixty 20 millisecond test pulses to 0 millivolt from a holding potential of −80 millivolt (mV). The average peak currents elicited by the last 3 test pulses were used to determine IC50 values for Nav1.5 inhibition.
The following buffers were used for the Qube® recordings: External buffer for Nav1.8 Qube® recording: 150 NaCl, 2 CaCl2, 5 KCl, 1 Mg Cl2, 10 HEPES, 12 Dextrose; External buffer for Qube® Nav1.5 recording: 120 N-Methyl-D-Glucamine, 40 NaCl, 1 KCl, 2.7 CaCl2, 5 HEPES, 0.5 MgCl2: and Internal buffer for Qube® recording: 120 CsF, 30 CsCl, 10 EGTA, 5 HEPES, 5 NaF, 2 MgCl2.
For all Qube® experiments offline analysis was used to determine percent inhibition as a function of drug concentration. IC50 values were determined by fitting to the Hill equation.
(In general: In patch-clamp work, channel activity is measured electrically.)
On to `C[C@H]1CN(c2ncc(C(F)(F)F)cc2C(=O)Nc2ccnc(S(N)(=O)=O)c2)CCC1(F)F` (single isomer, unassigned) [Example 47], for which the IC50 was 3.9 nM.

Consider `C[C@@H]1CN(c2ncc(C(F)(F)F)cc2C(=O)Nc2ccnc(S(N)(=O)=O)c2)CCC1(F)F` (single isomer, unassigned) [Example 48], for which the IC50 came to 12 nM.

In the case of `CC1CN(c2ncc(C(F)(F)F)cc2C(=O)Nc2ccnc(S(N)(=O)=O)c2)CCC1(Cl)Cl` (single isomer, unassigned) [Example 49, (R or S)-2-(4,4-dichloro-3-methylpiperidin-1-yl)-N-(2-sulfamoylpyridin-4-yl)-5-(trifluoromethy)nicotinamide], the 50% inhibitory concentration (IC50) was found to be 1.4 nM.

In the case of `CC1CN(c2ncc(C(F)(F)F)cc2C(=O)Nc2ccnc(S(N)(=O)=O)c2)CCC1(Cl)Cl` (single isomer, unassigned) [Example 50, (S or R)-2-(4,4-dichloro-3-methylpiperidin-1-yl)-N-(2-sulfamoylpyridin-4-yl)-5-(trifluoromethyl)nicotinamide], the IC50 was determined as 14 nM.

Consider `Cc1nc(N2CCC(F)(F)C(C)C2)c(C(=O)Nc2ccnc(S(N)(=O)=O)c2)cc1Cl` (single isomer, unassigned) [Example 54, (S or R)-5-chloro-2-(4,4-difluoro-3-methylpiperidin-1-yl)-6-methyl-N-(2-sulfamoylpyridin-4-yl)nicotinamide], for which the IC50 amounted to 2.1 nM.

Take `Cc1nc(N2CCC(F)(F)C(C)C2)c(C(=O)Nc2ccnc(S(N)(=O)=O)c2)cc1Cl` (single isomer, unassigned) [Example 55, (S or R)-5-chloro-2-(4,4-difluoro-3-methylpiperidin-1-yl)-6-methyl-N-(2-sulfamoylpyridin-4-yl)nicotinamide]: the half-inhibitory concentration (IC50) was 1.4 nM.

`CC1CCCN(c2ncc(C(F)(F)F)cc2C(=O)Nc2ccnc(S(N)(=O)=O)c2)C1` (single isomer, unassigned) [Example 56, (S or R)-2-(3-methylpiperidin-1-yl)-N-(2-sulfamoylpyridin-4-yl)-5-(trifluoromethyl)nicotinamide]: the IC50 was 9.1 nM.

With `CC1CCCN(c2ncc(C(F)(F)F)cc2C(=O)Nc2ccnc(S(N)(=O)=O)c2)C1` (single isomer, unassigned) [Example 57, (R or S)-2-(3-methylpiperidin-1-yl)-N-(2-sulfamoylpyridin-4-yl)-5-(trifluoromethyl)nicotinamide], the IC50 came out at 31 nM.

Consider `NS(=O)(=O)c1cc(NC(=O)c2cc(C(F)(F)F)cnc2N2CC3CCC3(C(F)(F)F)C2)ccn1` (single isomer, unassigned) [Example 58, N-(2-sulfamoyl-4-pyridyl)-5-(trifluoromethyl)-2-[(1S,5S or 1R,5R)-1-(trifluoromethyl)-3-azabicyclo[3.2.0]heptan-3-yl]pyridin-3-carboxamide], for which the IC50 turned out to be 10 nM.

Regarding `NS(=O)(=O)c1cc(NC(=O)c2cc(C(F)(F)F)cnc2N2CC3CCC3(C(F)(F)F)C2)ccn1` (single isomer, unassigned) [Example 59, N-(2-sulfamoyl-4-pyridyl)-5-(trifluoromethyl)-2-[(1R,5R or 1S,5S)-1-(trifluoromethyl)-3-azabicyclo[3.2.0]heptan-3-yl]pyridine-3-carboxamide], the 50% inhibitory concentration (IC50) is 116 nM.

Regarding `CC12CCN(c3ncc(C(F)(F)F)cc3C(=O)Nc3ccnc(S(N)(=O)=O)c3)CC1C2(F)F` (single isomer, unassigned) [Example 61, 2-[(1S,6S or 1R,6R)-7,7-difluoro-6-methyl-3-azabicyclo[4.1.0]heptan-3-yl]-N-(2-sulfamoyl-4-pyridyl)-5-(trifluoromethyl)pyridine-3-carboxamide], the IC50 was determined as 15 nM.

Regarding `CC12CCN(c3ncc(C(F)(F)F)cc3C(=O)Nc3ccnc(S(N)(=O)=O)c3)CC1C2(F)F` (single isomer, unassigned) [Example 62, 2-[(1R,6R or 1S,6S)-7,7-difluoro-6-methyl-3-azabicyclo[4.1.0]heptan-3-yl]-N-(2-sulfamoyl-4-pyridyl)-5-(trifluoromethyl)pyridine-3-carboxamide], the IC50 amounted to 105 nM.

Take `NS(=O)(=O)c1cc(NC(=O)c2cc(C(F)(F)F)cnc2N2CC3CC(F)(F)C3C2)ccn1` (single isomer, unassigned) [Example 64, 2-((1R,2S or 1S,5R)-6,6-difluoro-3-azabicyclo[3.2.0]heptan-3-yl)-N-(2-sulfamoylpyridin-4-yl)-5-(trifluoromethyl)nicotinamide]: the half-maximal inhibitory concentration (IC50) is 23 nM.

With `NS(=O)(=O)c1cc(NC(=O)c2cc(C(F)(F)F)cnc2N2CC3CC(F)(F)C3C2)ccn1` (single isomer, unassigned) [Example 65, 2-((1S,5R or 1R,5S)-6,6-difluoro-3-azabicyclo[3.2.0]heptan-3-yl)-N-(2-sulfamoylpyridin-4-yl)-5-(trifluoromethyl)nicotinamide], the IC50 is 94 nM.

As to `NS(=O)(=O)c1cc(NC(=O)c2cc(C(F)(F)F)cnc2N2CCCC3(C2)CC3(F)F)ccn1` (single isomer, unassigned) [Example 66, (R of S)-2-(1,1-difluoro-5-azaspiro[2.5]octan-5-yl)-N-(2-sulfamoylpyridin-4-yl)-5-(trifluoromethyl)nicotinamide], the IC50 came to 88 nM.

Regarding `NS(=O)(=O)c1cc(NC(=O)c2cc(C(F)(F)F)cnc2N2CCCC3(C2)CC3(F)F)ccn1` (single isomer, unassigned) [Example 67, (S or R)-2-(1,1-difluoro-5-azaspiro[2.5]octan-5-yl)-N-(2-sulfamoylpyridin-4-yl)-5-(trifluoromethyl)nicotinamide], the IC50 was 25 nM.

Take `NS(=O)(=O)c1cc(NC(=O)c2cc(C(F)(F)F)cnc2N2CCC3C(C2)C3(F)F)ccn1` (single isomer, unassigned) [Example 69, 2-((1S,6S or 1R,6R)-7,7-difluoro-3-azabicyclo[4.1.0]heptan-3-yl)-N-(2-sulfamoylpyridin-4-yl)-5-(trifluoromethyl)nicotinamide]: the IC50 amounted to 82 nM.

Turning to `NS(=O)(=O)c1cc(NC(=O)c2cc(C(F)(F)F)cnc2N2CCC3C(C2)C3(F)F)ccn1` (single isomer, unassigned) [Example 70, 2-((1R,6R or 1S,6S)-7,7-difluoro-3-azabicyclo[4.1.0]heptan-3-yl)-N-(2-sulfamoylpyridin-4-yl)-5-(trifluoromethyl)nicotinamide], the IC50 came to 41 nM.

Consider `NS(=O)(=O)c1cc(NC(=O)c2cc(C(F)(F)F)cnc2N2CC3CC2CC3(F)F)ccn1` (single isomer, unassigned) [Example 71, 2-[(1R,4R or 1S,4S)-5,5-difluoro-2-azabicyclo[2.2.1]heptan-2-yl]-N-(2-sulfamoyl-4-pyridyl)-5-(trifluoromethyl)pyridine-3-carboxamide], for which the IC50 was determined as 60 nM.

`NS(=O)(=O)c1cc(NC(=O)c2cc(C(F)(F)F)cnc2N2CC3CC2CC3(F)F)ccn1` (single isomer, unassigned) [Example 72, 2-[(1S,4S or 1R,4R)-5,5-difluoro-2-azabicyclo[2.2.1]heptan-2-yl]-N-(2-sulfamoyl-4-pyridyl)-5-(trifluoromethyl)pyridine-3-carboxamide]: the IC50 turned out to be 714 nM.

As for `CC1CC(F)(F)CCN1c1ncc(C(F)(F)F)cc1C(=O)Nc1ccnc(S(N)(=O)=O)c1` (single isomer, unassigned) [Example 73, (R or S)-2-(4,4-difluoro-2-methylpiperidin-1-yl)-N-(2-sulfamoylpyridin-4-yl)-5-(trifluoromethyl)nicotinamide], the IC50 worked out at 225 nM.

Consider `CC1CC(F)(F)CCN1c1ncc(C(F)(F)F)cc1C(=O)Nc1ccnc(S(N)(=O)=O)c1` (single isomer, unassigned) [Example 74, (S or R)-2-(4,4-difluoro-2-methylpiperidin-1-yl)-N-(2-sulfamoylpyridin-4-yl)-5-(trifluoromethyl)nicotinamide], for which the IC50 was 319 nM.

In the case of `Cc1nc(N2CCOC(C(F)F)CC2)c(C(=O)Nc2ccnc(S(N)(=O)=O)c2)cc1Cl` (single isomer, unassigned) [Example 116, 5-chloro-2-[(7R or 7S)-7-(difluoromethyl)-1,4-oxazepan-4-yl]-6-methyl-N-(2-sulfamoylpyridin-4-yl)pyridine-3-carboxamide], the IC50 came to 32 nM.

With `Cc1nc(N2CCOC(C(F)F)CC2)c(C(=O)Nc2ccnc(S(N)(=O)=O)c2)cc1Cl` (single isomer, unassigned) [Example 117, 5-chloro-2-[(7S or 7R)-7-(difluoromethyl)-1,4-oxazepan-4-yl]-6-methyl-N-(2-sulfamoylpyridin-4-yl)pyridine-3-carboxamide], the IC50 came to 18 nM.
